TGI and GI50 data for 16 compounds are collected here from PubChem BioAssay (NCI).

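Assay format: 96-well plates, 48-hour exposure. Here, GI50 denotes the concentration required for 50% inhibition of growth. The concentration for full growth arrest is given as TGI.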

Holding throughout (assay): growth of human tumour cells (NCI), 48 h
Assay [1] has as its system HCT-116 colon.
Assay [2] relates to MALME-3M melanoma.
For assay [3], the system named is RPMI-8226 leukemia.
Assay [4] relates to SF-539 CNS.
Assay [5] deals with SK-MEL-2 melanoma.
Assay [6] has as its system SNB-75 CNS.
In assay [7] the test system is UACC-62 melanoma.

On to `O=C(c1ccccc1)C1OC12C(=O)Nc1c(Cl)cc(Cl)cc12` (stereo unspecified), for which the TGI is > 71.9 µM in assay [1]; > 100 µM in assay [2]; > 100 µM in assay [3]; > 100 µM in assay [4]; > 100 µM in assay [5]; 29.5 µM in assay [6]. In addition, the TGI in assay [7] is > 100 µM.
As for `O=C(O)CCC(N=Cc1nc(-c2ccccc2)oc1O)C(=O)O` (stereo unspecified), the TGI in assay [1], in assay [2], in assay [3], in assay [4], in assay [5] and in assay [6] was > 100 µM throughout. For the same compound, the TGI in assay [7] was > 100 µM.
As for `CC(C)([NH-])CO.CC(C)([NH-])CO.[Cl][Cd][Cl]`, the GI50 in assay [1] is 18.8 µM; in assay [2] it was 8.6 µM; in assay [3] it was 14.5 µM; in assay [4], 18.7 µM; in assay [5], 15.6 µM; in assay [7], 7.82 µM. For the same compound, the TGI was 33.8 µM in assay [1]; 22.4 µM in assay [2]; 43.8 µM in assay [3]; 33.2 µM in assay [4]; 29.8 µM in assay [5]; 25 µM in assay [7].
In the case of `NC(=O)/N=C1/CCC2C3CCCC2C13`, the TGI in assay [1], in assay [3], in assay [4], in assay [5], in assay [6] and in assay [7] was > 100 µM throughout.
For `O=C(CCN1CCN(c2ccccc2)CC1)N1CCc2c([nH]c3ccccc23)C1c1cccnc1` (stereo unspecified), the TGI was found to be 28.1 µM in assay [1]; 39.2 µM in assay [2]; 35.4 µM in assay [4]; 30.4 µM in assay [5]; 53.3 µM in assay [6].
For `CN1C(=O)C2C3C=C4c5ccccc5N(c5ccccc5)C4(C2C1=O)[C@H]1C(=O)N(C)C(=O)[C@@H]31` (stereo partly specified), the TGI in assay [1], in assay [2], in assay [3], in assay [5], in assay [6] and in assay [7] was > 100 µM in each case.
Take `COC(=O)C(C(=O)OC)C1CCCC(=O)C1` (stereo unspecified): the TGI in assay [1] was > 100 µM; in assay [2], > 100 µM; in assay [3], > 100 µM; in assay [4] it was > 100 µM; in assay [5] it was 0.503 µM; in assay [6], > 100 µM. Besides, the TGI in assay [7] was > 100 µM.
For the compound `C/C(CC(=O)Nc1ccc(C)c(C)c1)=N\NC(N)=O`, the TGI in assay [1], in assay [2], in assay [3], in assay [4], in assay [5] and in assay [6] was > 100 µM throughout. In addition, the TGI in assay [7] was > 100 µM.
For `Cn1cnc([N+](=O)[O-])c1Sc1nccn1-c1cccc2ccccc12`, the TGI in assay [1] worked out at 60.3 µM; in assay [2], 42.2 µM; in assay [3], 49.9 µM; in assay [4] it was 90.2 µM; in assay [5] it was 37.5 µM; in assay [6], 87.5 µM. The TGI in assay [7] worked out at 33.9 µM.
In the case of `CC(=O)C1C(c2ccc(N(C)C)cc2)c2cc3c(cc2OC1(C)O)OCO3` (stereo unspecified), the TGI in assay [1] was > 100 µM; in assay [2], > 100 µM; in assay [3] it was 83.2 µM; in assay [5] it was > 100 µM; in assay [6], 68.2 µM; in assay [7] it was > 100 µM.
As to `COc1ccc(-c2cc(=O)c3cc(OC)ccc3[nH]2)cc1`, the TGI in assay [1], in assay [2], in assay [3], in assay [6] and in assay [7] was > 100 µM throughout.
Turning to `Oc1ccc2ccccc2c1N=Nc1ccsc1`, the TGI in assay [1], in assay [2], in assay [3], in assay [4], in assay [5] and in assay [6] was > 100 µM each time. In assay [7], the TGI was > 100 µM.
As for `Cc1cccc(C(C)(C)C)c1NC(=O)CC1C(=O)Nc2ccccc2S1(=O)=O` (stereo unspecified), the TGI in assay [1] turned out to be 22.3 µM; in assay [2], 25.4 µM; in assay [3], 17.2 µM; in assay [4], 10.2 µM; in assay [5] it was 21.2 µM; in assay [6] it was 30.4 µM. Also, the TGI in assay [7] was 18.6 µM.
Consider `CC(Nc1ccc(S(=O)(=O)N=C(N)N)cc1)c1c2ccccc2nc2ccccc12` (stereo unspecified), for which the TGI was > 10 µM in assay [1]; 65.6 µM in assay [2]; 55.2 µM in assay [3]; 63.4 µM in assay [4]; 61.9 µM in assay [5]; 79.7 µM in assay [6]. For the same compound, the TGI in assay [7] is > 10 µM.
In the case of `COC(=O)c1cccn1C(=O)n1cccc1`, the TGI in assay [1], in assay [2], in assay [4], in assay [5], in assay [6] and in assay [7] was > 100 µM throughout.
With `CCOC(=O)N1CCC(=O)C(CNC23CC4CC(CC(C4)C2)C3)C1` (stereo unspecified), the TGI in assay [2] is 37.7 µM; in assay [4], > 100 µM; in assay [5] it was > 100 µM; in assay [7], > 100 µM.
